Experimental data reported in patent publication US4379159A, “Antiinflammatory 2-substituted-thio-4,5-dihydro-4,5-diaryl-1H-imidazoles” (E. I. Du Pont de Nemours & Company, priority 1980, dated 1983).

Tests used:
[1] = test system: adjuvant-induced arthritis in rats; assay: Established Adjuvant-Induced Arthritis in Rats; type: in vivo, rat (Lewis (Wistar) male rats); settings: oral gavage once daily 7 days (days 14-20), paw volume on day 21; for ED50: Rattus norvegicus, ED50% for decrease from control paw volume, estimated by inspection of dose-response regression lines
adjuvant arthritis = settings: background statement; cited from earlier work
arthritis = settings: background statement; cited from earlier work

## CSC1=NC(c2ccc(Cl)cc2)C(c2ccc(Cl)cc2)N1.Cl (centres unmarked) [Example 1, 4,5-Bis(4-chlorophenyl)-4,5-dihydro-2-(methylthio)-1H-imidazole Hydrochloride]
[1]
  ED50: 60 mg/kg

## C=CCSC1=NC(c2ccc(Cl)cc2)C(c2ccc(Cl)cc2)N1.Cl (centres unmarked) [Example 2, 4,5-Bis(4-chlorophenyl)-4,5-dihydro-2-(allylthio)-1H-imidazole Hydrochloride]
[1]; at 25 mg/kg
  percent reduction in paw volume at the indicated dose: 28%

## Cl.FC(F)(F)CSC1=NC(c2ccc(Cl)cc2)C(c2ccc(Cl)cc2)N1 (centres unmarked) [Example 3, 4,5-Bis(4-chlorophenyl)-4,5-dihydro-2-(2,2,2-trifluoroethylthio)-1H-imidazole Hydrochloride]
[1]
  ED50: 25 mg/kg

## c1ccc([C@H]2CN3CCSC3=N2)cc1 [Levamisole, 2,3,5,6-Tetrahydro-6-phenylimidazole-[2,1-b]thiazole]
Adjuvant arthritis
  activity in an adjuvant arthritis test: inactive
arthritis
  clinical efficacy as an antiarthritic: has shown clinical efficacy
